Assay results: patent US20150352108A1, “AMINO-PYRIMIDINE COMPOUNDS AS INHIBITORS OF TBK1 AND/OR IKK EPSILON” (Alzheimer's Institute of America, priority 2009, published 2015)
Where two headings read alike, the source gives them in different places.

Columns and labels:
IKKε = target: T1, IKKε (Homo sapiens, UniProt Q14164); test: In-vitro IKKε kinase assay ([γ33]ATP filter-plate); assay type: biochemical
T1 construct: His-tag; made in house; host or cells: Sf9 insect cells
T1 sequence (Q14164 1-716): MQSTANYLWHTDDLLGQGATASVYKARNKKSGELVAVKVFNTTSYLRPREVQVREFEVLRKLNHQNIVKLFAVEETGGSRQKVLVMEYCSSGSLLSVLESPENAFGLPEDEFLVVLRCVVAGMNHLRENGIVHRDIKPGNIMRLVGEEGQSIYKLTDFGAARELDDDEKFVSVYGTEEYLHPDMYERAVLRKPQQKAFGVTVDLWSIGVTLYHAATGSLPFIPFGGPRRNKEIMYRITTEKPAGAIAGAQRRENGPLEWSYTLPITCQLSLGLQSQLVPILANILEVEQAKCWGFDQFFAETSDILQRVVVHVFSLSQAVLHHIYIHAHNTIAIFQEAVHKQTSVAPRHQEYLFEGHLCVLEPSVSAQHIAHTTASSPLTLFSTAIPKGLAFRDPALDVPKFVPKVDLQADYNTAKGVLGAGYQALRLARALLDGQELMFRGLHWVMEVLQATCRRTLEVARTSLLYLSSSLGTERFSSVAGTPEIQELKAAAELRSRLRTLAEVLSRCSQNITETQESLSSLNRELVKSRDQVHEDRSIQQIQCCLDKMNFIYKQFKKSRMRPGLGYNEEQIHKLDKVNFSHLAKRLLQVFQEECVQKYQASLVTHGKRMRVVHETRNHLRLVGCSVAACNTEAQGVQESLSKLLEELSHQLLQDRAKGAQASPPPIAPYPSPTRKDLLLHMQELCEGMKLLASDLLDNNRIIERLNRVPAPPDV
Summary of the method: (§1)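 His-tagged IKKε and TBK1 from Sf9 cells were assayed with myelin basic protein or casein and [γ33]ATP at 2×Km ATP (32 μM for IKKε, 60 μM for TBK1). Enzyme was 0.1 or 0.015 μg/ml for IKKε and 0.1 or 0.02 μg/ml for TBK1 (normal/sensitized). Reactions ran 30-45 min, were filter-captured, scintillation-counted, and normalized to DMSO after background subtraction.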

[1] = test system: IKKε-mediated phosphorylation of IRF3; test: In-situ phosphorylation of IRF3 (pIRF3 Ser396 ELISA) in HEK293T cells cotransfected with IRF3 and IKKε; assay type: cell-based; conditions: Homo sapiens, HEK-293T
Summary of the method: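 For the IRF3 ELISA, HEK293T cells cotransfected with IRF3 and IKKε were replated at 20,000/well and treated 20 h. Phospho-Ser396 IRF3 was measured by ELISA and normalised to DMSO, with viability checked by CellTiter-Glo. For IRF7, cells transfected with IRF7 and TBK1 were treated overnight, and pSer477/Ser479 IRF7 was detected by Western blot.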

TBK1 = target: T2, TBK1 (Homo sapiens, UniProt Q9UHD2); test: In-vitro TBK1 kinase assay ([γ33]ATP filter-plate); assay type: biochemical
T2 construct: His-tag; made in house; host or cells: Sf9 insect cells
T2 sequence (Q9UHD2 1-729): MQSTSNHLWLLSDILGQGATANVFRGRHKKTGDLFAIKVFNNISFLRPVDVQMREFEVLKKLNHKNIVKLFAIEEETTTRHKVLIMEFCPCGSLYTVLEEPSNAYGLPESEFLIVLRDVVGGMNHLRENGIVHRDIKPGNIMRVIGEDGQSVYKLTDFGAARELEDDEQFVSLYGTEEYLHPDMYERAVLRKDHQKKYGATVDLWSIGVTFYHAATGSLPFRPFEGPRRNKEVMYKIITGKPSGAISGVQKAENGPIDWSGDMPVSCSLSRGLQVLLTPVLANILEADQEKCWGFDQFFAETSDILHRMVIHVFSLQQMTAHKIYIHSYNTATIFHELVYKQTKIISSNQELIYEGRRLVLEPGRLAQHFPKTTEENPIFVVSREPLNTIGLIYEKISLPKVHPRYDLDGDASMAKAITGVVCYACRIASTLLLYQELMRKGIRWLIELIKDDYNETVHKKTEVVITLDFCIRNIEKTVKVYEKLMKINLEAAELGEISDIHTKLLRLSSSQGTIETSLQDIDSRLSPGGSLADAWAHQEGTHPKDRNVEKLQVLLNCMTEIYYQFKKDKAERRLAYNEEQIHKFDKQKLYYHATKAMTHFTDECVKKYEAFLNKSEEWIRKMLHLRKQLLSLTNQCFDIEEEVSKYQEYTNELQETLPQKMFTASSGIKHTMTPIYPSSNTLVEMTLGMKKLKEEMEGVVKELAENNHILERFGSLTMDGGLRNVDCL
Summary of the method: as §1

[2] = text bins, read-out: IC50 for inhibition of the kinase activity of IKKε
[3] = HEK293T cells, 20 hours, text bins, read-out: IC50 for inhibition of the in-situ IKKε-mediated phosphorylation of IRF3
[4] = text bins, read-out: IC50 for inhibition of the kinase activity of TBK1
[5] = HEK293T cells in culture, Table 3, read-out: pIRF3 ELISA IC50

Row | Compound | IC50 (IKKε; [2]) | IC50 [1, 3] | IC50 (TBK1; [4]) | IC50 (IKKε; Table 3, read-out: IKKε IC50) | IC50 [1, 5] | IC50 (TBK1; Table 3, read-out: TBK1 IC50)
1 | COc1ccc(-c2ccnc(Nc3ccc(N4CCOCC4)c(OC)c3)n2)cc1C#N [Example 157, 2-Methoxy-5-(2-{[3-methoxy-4-(morpholin-4-yl)phenyl]amino}pyrimidin-4-yl)benzonitrile] | < 5 nM | 250 to 500 nM | < 10 nM |  |  | 
2 | N#Cc1cc(-c2ccnc(Nc3ccc(CS(=O)(=O)NCCCN4CCOCC4)cc3)n2)ccc1OC1CCOCC1 [compound 405, 1-[4-({4-[3-Cyano-4-(tetrahydro-2H-pyran-4-yloxy)phenyl]pyrimidin-2-yl}amino)phenyl]-N-[3-(morpholin-4-yl)propyl] methanesulfonamide] | < 5 nM | < 100 nM | < 10 nM |  |  | 
3 | COc1cc(Nc2nccc(-c3ccc(OC4CCOCC4)c(C#N)c3)n2)cc(OC)c1OC [Example 290, 2-(Tetrahydro-2H-pyran-4-yloxy)-5-{2-[(3,4,5-trimethoxyphenyl)amino]pyrimidin-4-yl}benzonitrile] | < 5 nM | 250 to 500 nM | < 10 nM |  |  | 
4 | N#Cc1cc(-c2ccnc(Nc3ccc(OCCCN4CCOCC4)cc3)n2)ccc1OC1CCOCC1 [compound 527, 5-[2-({4-[3-(morpholin-4-yl)propoxy]phenyl}amino)pyrimidin-4-yl]-2-(tetrahydro-2H-pyran-4-yloxy)benzonitrile] | < 5 nM | < 100 nM | < 10 nM |  |  | 
5 | N#Cc1cc(-c2ccnc(Nc3cccc(OCCN4CCOCC4)c3)n2)ccc1OC1CCOCC1 [compound 518, 5-[2-({3-[2-(Morpholin-4-yl)ethoxy]phenyl}amino)pyrimidin-4-yl]-2-(tetrahydro-2H-pyran-4-yloxy)benzonitrile] | < 5 nM | < 100 nM | < 10 nM |  |  | 
6 | COc1cc(Nc2nccc(-c3ccc(OC4CCOCC4)c(C#N)c3)n2)ccc1C(=O)N1CCN(C)CC1 [compound 354, 5-[2-({3-methoxy-4-[(4-methylpiperazin-1-yl)carbonyl]phenyl}amino)pyrimidin-4-yl]-2-(tetrahydro-2H-pyran-4-yloxy)benzonitrile] | < 5 nM | < 100 nM | < 10 nM |  |  | 
7 | CS(=O)(=O)NCc1ccc(Nc2nccc(-c3ccc(OC4CCOCC4)c(C#N)c3)n2)cc1 [compound 493, N-[4-({4-[3-cyano-4-(tetrahydro-2H-pyran-4-yloxy)phenyl]pyrimidin-2-yl}amino)benzyl] methanesulfonamide] | < 5 nM | < 100 nM | < 10 nM |  |  | 
8 | N#Cc1cc(-c2ccnc(Nc3cccc(-c4nnn[nH]4)c3)n2)ccc1OC1CCOCC1 [compound 594, 2-(Tetrahydro-2H-pyran-4-yloxy)-5-(2-{[3-(1H-tetrazol-5-yl)phenyl]amino}pyrimidin-4-yl)benzonitrile] | < 5 nM |  | < 10 nM | 0.3 nM | > 5000 nM | 2 nM
9 | N#Cc1cc(-c2ccnc(Nc3ccc(CN4CC(O)C4)cc3)n2)ccc1OC1CCOCC1 [compound 497, 5-[2-({4-[(3-hydroxyazetidin-1-yl)methyl]phenyl}amino)pyrimidin-4-yl]-2-(tetrahydro-2H-pyran-4-yloxy)benzonitrile] | < 5 nM | < 100 nM | < 10 nM |  |  | 
10 | CN1CCN(c2ccc(Nc3nccc(-c4ccc(OC5CCOCC5)c(C#N)c4)n3)cc2)CC1 [Example 178, 5-(2-{[4-(4-methylpiperazin-1-yl)phenyl]amino}pyrimidin-4-yl)-2-(tetrahydro-2H-pyran-4-yloxy)benzonitrile] | < 5 nM | < 100 nM | < 10 nM |  |  | 
11 | COc1cc(Nc2nccc(-c3ccc(OC4CCOCC4)c(C#N)c3)n2)ccc1C(=O)N1CC(O)C1 [compound 485, 5-[2-({4-[(3-Hydroxyazetidinb-1-yl)carbonyl]-3-methoxyphenyl}amino)pyrimidin-4-yl]-2-(tetrahydro-2H-pyran-4-yloxy)benzonitrile] | < 5 nM | < 100 nM | < 10 nM |  |  | 
12 | N#Cc1cc(-c2ccnc(Nc3cccc(CO)c3)n2)ccc1OC1CCOCC1 [compound 395, 5-(2-{[3-(hydroxymethyl)phenyl]amino}pyrimidin-4-yl)-2-(tetrahydro-2H-pyran-4-yloxy)benzonitrile] | < 5 nM | < 100 nM | < 10 nM |  |  | 
13 | N#Cc1cc(-c2ccnc(Nc3cccc(N)c3)n2)ccc1OC1CCOCC1 [compound 393, 5-{2-[(3-Aminophenyl)amino]pyrimidin-4-yl}-2-(tetrahydro-2H-pyran-4-yloxy)benzonitrile] | < 5 nM | < 100 nM | < 10 nM |  |  | 
14 | COc1cc(Nc2nccc(-c3ccc(OC4CCOCC4)c(C#N)c3)n2)ccc1C(=O)N1CCN(C(C)C)CC1 [compound 503, 5-{2-[(3-methoxy-4-{[4-(propan-2-yl)piperazin-1-yl]carbonyl}phenyl)amino]pyrimidin-4-yl}-2-(tetrahydro-2H-pyran-4-yloxy)benzonitrile] | < 5 nM | < 100 nM | < 10 nM |  |  | 
15 | COc1cc(Nc2nccc(-c3ccc(O[C@@H]4CCN(C(=O)CO)C4)c(C#N)c3)n2)ccc1N1CCOCC1 [compound 588, 2-{[(3R)-1-(hydroxyacetyl)pyrrolidin-3-yl]oxy}-5-(2-{[3-methoxy-4-(morpholin-4-yl)phenyl]amino}pyrimidin-4-yl)benzonitrile] | < 5 nM | < 100 nM | < 10 nM | 0.3 nM | 31 nM | 0.3 nM
16 | CCN1CCN(Cc2ccc(Nc3nccc(-c4ccc(OC5CCN(C(=O)[C@H](C)O)CC5)c(C#N)c4)n3)cc2)CC1 [compound 508, 5-[2-({4-[(4-ethylpiperazin-1-yl)methyl]phenyl}amino)pyrimidin-4-yl]-2-({1-[(2S)-2-hydroxypropanoyl]piperidin-4-yl}oxy)benzonitrile] | 5 to 50 nM | 100 to 250 nM | 10 to 100 nM |  |  | 
17 | COC1CN(Cc2ccc(Nc3nccc(-c4ccc(OC5CCOCC5)c(C#N)c4)n3)cc2)C1 [compound 487] | < 5 nM | < 100 nM | < 10 nM |  |  | 
18 | COc1cc(Nc2nccc(-c3ccc(OC4CCOCC4)c(C#N)c3)n2)ccc1C(=O)NCCN(C)C [Example 2, 4-({4-[3-cyano-4-(tetrahydero-2H-pyran-4-yloxy)phenyl]pyrimidin-2-yl}amino)-N-[2-(dimethylamino)ethyl]-2-methoxybenzamide] | < 5 nM | < 100 nM | < 10 nM | 1.1 nM | 71.9 nM | 0.4 nM
19 | COc1cc(Nc2nccc(-c3ccc(OC4CCOCC4)c(C#N)c3)n2)ccc1OCCN [Example 30, 5-(2-{[4-(2-aminoethoxy)-3-methoxyphenyl]amino}pyrimidin-4-yl)-2-(tetrahydro-2H-pyran-4-yloxy)benzonitrile] | < 5 nM | 250 to 500 nM | < 10 nM |  |  | 
